Measurements from ChEMBL document CHEMBL5154865, “Antibiotic natural product hunanamycin A: Lead identification towards anti-Salmonella agents” (Eur J Med Chem, 2022).
≈ marks a conversion by molar mass, not a printed value.

Tests used:
Salmonella enterica = assay: Antibacterial activity against Salmonella enterica ATCC 6539 assessed as microbial cell viability incubated for 24 hr by quantification of ATP multimode plate reader method; format: functional
[1] = Solubility of compound in DMSO at pH 1.2 after 5 mins measured by HPLC analysis; format: physicochemical
[2] = Solubility of compound in DMSO at pH 2.2 after 5 mins measured by HPLC analysis; format: physicochemical
[3] = Solubility of compound in DMSO at pH 4.5 after 5 mins measured by HPLC analysis; format: physicochemical
[4] = Solubility of compound in DMSO at pH 7.4 after 5 mins measured by HPLC analysis; format: physicochemical
[5] = Solubility of compound in DMSO at pH 10.2 after 5 mins measured by HPLC analysis; format: physicochemical
[6] = Stability in human plasma measured after 60 mins LC-MS/MS analysis; format: ADME, cell-free; settings: read-out: Stability
[7] = Metabolic stability in mouse liver microsomes measured at 1 uM after 30 mins by LC-MS/MS analysis; format: ADME, Microsome; settings: read-out: Stability
[8] = Metabolic stability in human liver microsomes measured at 1 uM after 30 mins by LC-MS/MS analysis; format: ADME, Microsome; settings: read-out: Stability
[9] = Plasma protein binding in human measured at 150 uM preincubated for 30 mins followed by addition of dialysis buffer measured after 4 hrs by LC-MS/MS analysis; format: ADME, cell-free; settings: read-out: PPB (converted)
[10] = Acute toxicity in Swiss albino mouse assessed as mortality at 2 g/Kg, po administered daily for 14 days; format: organism-based; settings: in vivo, 2000 mg/kg, 336 h, time 14 day
[11] = Acute toxicity in Swiss albino mouse assessed as lethal dose administered orally daily for 14 days; settings: in vivo, route po, time 14 day

Cc1cc2[nH]c(=O)c(=O)n(C[C@H](O)[C@H](O)[C@H](O)CO)c2cc1C
MIC (Salmonella enterica): > 32 µg/mL

CC1(C)CCn2c(=O)c(=O)n(CCCO)c3cccc1c32
MIC (Salmonella enterica): 1 µg/mL (≈ 3.47 µM)
solubility at 5 min [1]: 51.2 µM (≈ 14.8 µg/mL)
solubility at 5 min [2]: 50.8 µM (≈ 14.7 µg/mL)
solubility at 5 min [3]: 50.1 µM (≈ 14.4 µg/mL)
solubility at 5 min [4]: 50.1 µM (≈ 14.5 µg/mL)
solubility at 5 min [5]: 50.2 µM (≈ 14.5 µg/mL)
remaining at 1 h [6]: 82.4%
remaining at 0.5 h, 1 µM [7]: 96.1%
remaining at 0.5 h, 1 µM [8]: 100%
fraction unbound at 4 h, 150 µM [9]: 0.389
Activity [10]: Non-Toxic
LD50 at 336 h [11]: > 2000 mg/kg

CC1(C)CCn2c(=O)c(=O)n(Cc3cn([C@@H]4OC(CO)C(O)C4O)nn3)c3cccc1c32 (single isomer, unassigned)
MIC (Salmonella enterica): 32 µg/mL (≈ 72.2 µM)

CO[C@@H]1O[C@H](Cn2cc(Cn3c(=O)c(=O)n4c5c(cccc53)C(C)(C)CC4)nn2)[C@@H](O)[C@H]1O
MIC (Salmonella enterica): 32 µg/mL (≈ 69.9 µM)

CO[C@@H]1O[C@H](Cn2c(=O)n3c4c(cccc42)C(C)(C)CC3)[C@@H](O)[C@H]1O
MIC (Salmonella enterica): 2 µg/mL (≈ 5.74 µM)
solubility at 5 min [1]: 41.2 µM (≈ 14.4 µg/mL)
solubility at 5 min [2]: 48.4 µM (≈ 16.8 µg/mL)
solubility at 5 min [3]: 48.8 µM (≈ 17 µg/mL)
solubility at 5 min [4]: 48.5 µM (≈ 16.9 µg/mL)
solubility at 5 min [5]: 48.6 µM (≈ 16.9 µg/mL)
remaining at 1 h [6]: 98%
remaining at 0.5 h, 1 µM [7]: 74.3%
remaining at 0.5 h, 1 µM [8]: 90%
fraction unbound at 4 h, 150 µM [9]: 0.338

Cn1nnc(Cn2c(=O)c(=O)n3c4c(cccc42)C(C)(C)CC3)n1
MIC (Salmonella enterica): 16 µg/mL (≈ 49 µM)

CCOC(=O)Cn1cc(Cn2c(=O)n3c4c(cccc42)C(C)(C)CC3)nn1
MIC (Salmonella enterica): 8 µg/mL (≈ 21.7 µM)

CC1(C)CCn2c(=O)c(=O)n(CCCCO)c3cccc1c32
MIC (Salmonella enterica): 32 µg/mL (≈ 106 µM)

CC1(C)CCn2c(=O)c(=O)n(Cc3nn[nH]n3)c3cccc1c32
MIC (Salmonella enterica): 4 µg/mL (≈ 12.8 µM)
solubility at 5 min [1]: 51.8 µM (≈ 16.2 µg/mL)
solubility at 5 min [2]: 51.2 µM (≈ 16 µg/mL)
solubility at 5 min [3]: 50.5 µM (≈ 15.8 µg/mL)
solubility at 5 min [4]: 51.8 µM (≈ 16.2 µg/mL)
solubility at 5 min [5]: 51.8 µM (≈ 16.2 µg/mL)
remaining at 1 h [6]: 99.9%
remaining at 0.5 h, 1 µM [7]: 96.1%
remaining at 0.5 h, 1 µM [8]: 98.9%
fraction unbound at 4 h, 150 µM [9]: 0.0205

CC1(C)CCn2c(=O)c(OC[C@H](O)[C@H](O)[C@H](O)CO)nc3cccc1c32
MIC (Salmonella enterica): 16 µg/mL (≈ 43.9 µM)

Cc1cc2c(cc1C)n(C[C@H](O)[C@H](O)[C@H](O)CO)c(=O)c(=O)n2CCC1CCCCC1
MIC (Salmonella enterica): 8 µg/mL (≈ 18.4 µM)

CC1(C)CCn2c(=O)c(=O)n(C[C@H](O)[C@H](O)[C@H](O)CO)c3cccc1c32
MIC (Salmonella enterica): 16 µg/mL (≈ 43.9 µM)

CCCCCn1c(=O)c(=O)n2c3c(cccc31)C(C)(C)CC2
MIC (Salmonella enterica): 32 µg/mL (≈ 107 µM)

CCOC(=O)Cn1cc(Cn2c(=O)c3cccc4c3n(c2=O)CCC4(C)C)nn1
MIC (Salmonella enterica): > 32 µg/mL

CCn1c(=O)c(=O)n(C[C@H](O)[C@H](O)[C@H](O)CO)c2cc(C)c(C)cc21
MIC (Salmonella enterica): > 32 µg/mL

C#CCn1c(=O)c2cccc3c2n(c1=O)CCC3(C)C
MIC (Salmonella enterica): 24 µg/mL (≈ 89.4 µM)

CC1(C)CCn2c(=O)c(=O)n(Cc3ccccn3)c3cccc1c32
MIC (Salmonella enterica): 24 µg/mL (≈ 74.7 µM)

CCOC(=O)Cn1c(=O)c(=O)n(C[C@H](O)[C@H](O)[C@H](O)CO)c2cc(C)c(C)cc21
MIC (Salmonella enterica): 16 µg/mL (≈ 39 µM)

CO[C@@H]1O[C@H](Cn2c(=O)n3c4c(cccc42)C(C)(C)CC3)[C@@H](OC)[C@H]1OC
MIC (Salmonella enterica): > 32 µg/mL

CC1(C)CCn2c(=O)n(CCCO)c3cccc1c32
MIC (Salmonella enterica): > 32 µg/mL

CC1(C)CCn2c(=O)n(C[C@H](O)[C@H](O)[C@H](O)CO)c3cccc1c32
MIC (Salmonella enterica): 4 µg/mL (≈ 11.9 µM)
solubility at 5 min [1]: 48.2 µM (≈ 16.2 µg/mL)
solubility at 5 min [2]: 48 µM (≈ 16.1 µg/mL)
solubility at 5 min [3]: 47.8 µM (≈ 16.1 µg/mL)
solubility at 5 min [4]: 47.4 µM (≈ 15.9 µg/mL)
solubility at 5 min [5]: 47.6 µM (≈ 16 µg/mL)
remaining at 1 h [6]: 99.9%
remaining at 0.5 h, 1 µM [7]: 96.4%
remaining at 0.5 h, 1 µM [8]: 100%
fraction unbound at 4 h, 150 µM [9]: 0.578

C=CCn1c(=O)c(=O)n(C[C@H](O)[C@H](O)[C@H](O)CO)c2cc(C)c(C)cc21
MIC (Salmonella enterica): 16 µg/mL (≈ 43.9 µM)

CC1(C)CCn2c(=O)n(Cc3cn([C@@H]4OC(CO)C(O)C4O)nn3)c(=O)c3cccc1c32 (single isomer, unassigned)
MIC (Salmonella enterica): > 32 µg/mL

CC1(C)CCn2c(=O)c(=O)n(CC(N)=O)c3cccc1c32
MIC (Salmonella enterica): 24 µg/mL (≈ 83.5 µM)

Cc1cc2c(cc1C)n(C[C@H](O)[C@H](O)[C@H](O)CO)c(=O)c(=O)n2CC=C1CCCCC1
MIC (Salmonella enterica): 32 µg/mL (≈ 74 µM)

CC1(C)CCn2c(=O)[nH]c(=O)c3cccc1c32
MIC (Salmonella enterica): 16 µg/mL (≈ 69.5 µM)

CC1(C)CCn2c(=O)n(Cc3cn(C[C@H](O)[C@H](O)[C@H](O)CO)nn3)c3cccc1c32
MIC (Salmonella enterica): 32 µg/mL (≈ 76.7 µM)

CC1(C)CCn2c(=O)n(Cc3cn(CCO)nn3)c3cccc1c32
MIC (Salmonella enterica): 16 µg/mL (≈ 48.9 µM)

CO[C@@H]1O[C@H](Cn2cc(Cn3c(=O)c(=O)n4c5c(cccc53)C(C)(C)CC4)nn2)[C@H]2OC(=O)O[C@@H]12
MIC (Salmonella enterica): 32 µg/mL (≈ 66.2 µM)

Cc1cc2nc(OC[C@H](O)[C@H](O)[C@H](O)CO)c(=O)n3c2c(c1C)C(C)(C)CC3
MIC (Salmonella enterica): 8 µg/mL (≈ 20.4 µM)

CCOC(=O)Cn1c(=O)c(=O)n2c3c(cccc31)C(C)(C)CC2
MIC (Salmonella enterica): 8 µg/mL (≈ 25.3 µM)

Cc1cc2c3c(c1C)C(C)(C)CCn3c(=O)c(=O)n2C[C@H](O)[C@H](O)[C@H](O)CO
MIC (Salmonella enterica): 8 µg/mL (≈ 20.4 µM)
solubility at 5 min [1]: 50.8 µM (≈ 19.9 µg/mL)
solubility at 5 min [2]: 50.4 µM (≈ 19.8 µg/mL)
solubility at 5 min [3]: 50 µM (≈ 19.6 µg/mL)
solubility at 5 min [4]: 49.4 µM (≈ 19.4 µg/mL)
solubility at 5 min [5]: 49.3 µM (≈ 19.3 µg/mL)
remaining at 1 h [6]: 100%
remaining at 0.5 h, 1 µM [7]: 99.6%
remaining at 0.5 h, 1 µM [8]: 100%
fraction unbound at 4 h, 150 µM [9]: 0.412
Activity [10]: Non-Toxic
LD50 at 336 h [11]: > 2000 mg/kg

CO[C@@H]1O[C@H](Cn2c(=O)c(=O)n3c4c(cccc42)C(C)(C)CC3)[C@@H](O)[C@H]1O
MIC (Salmonella enterica): 16 µg/mL (≈ 42.5 µM)

CCOC(=O)Cn1cc(Cn2c(=O)c(=O)n3c4c(cccc42)C(C)(C)CC3)nn1
MIC (Salmonella enterica): 16 µg/mL (≈ 40.3 µM)

CC(C)=CCn1c(=O)c(=O)n(C[C@H](O)[C@H](O)[C@H](O)CO)c2cc(C)c(C)cc21
MIC (Salmonella enterica): 16 µg/mL (≈ 40.8 µM)

CC1(C)CCn2c(=O)c(=O)n(CCO)c3cccc1c32
MIC (Salmonella enterica): 24 µg/mL (≈ 87.5 µM)

CC1(C)CCn2c(=O)c(=O)n(CC(O)CO)c3cccc1c32 (configuration not stated)
MIC (Salmonella enterica): 8 µg/mL (≈ 26.3 µM)

CO[C@@H]1O[C@H](Cn2c(=O)n3c4c(cccc42)C(C)(C)CC3)[C@H]2OC(=O)O[C@@H]12
MIC (Salmonella enterica): 32 µg/mL (≈ 85.5 µM)

CC1(C)CCn2c(=O)c(OCC(O)CO)nc3cccc1c32 (single isomer, unassigned)
MIC (Salmonella enterica): 16 µg/mL (≈ 52.6 µM)

CO[C@@H]1O[C@H](Cn2cc(Cn3c(=O)c4cccc5c4n(c3=O)CCC5(C)C)nn2)[C@@H](O)[C@H]1O (single isomer, unassigned)
MIC (Salmonella enterica): > 32 µg/mL

CC1(C)CCn2c(=O)n(C[C@H](O)[C@@H](O)CO)c3cccc1c32
MIC (Salmonella enterica): 16 µg/mL (≈ 52.2 µM)

CC1(C)CCn2c(=O)c(=O)n(Cc3ccccc3)c3cccc1c32
MIC (Salmonella enterica): 32 µg/mL (≈ 99.9 µM)

CC1(C)CCn2c(=O)c(=O)n(CC(=O)O)c3cccc1c32
MIC (Salmonella enterica): 16 µg/mL (≈ 55.5 µM)

CC1(C)CCn2c(=O)n(Cc3cn([C@@H]4O[C@H](CO)[C@@H](O)[C@H]4O)nn3)c3cccc1c32
MIC (Salmonella enterica): 32 µg/mL (≈ 77 µM)

CC1(C)CCn2c(=O)c(=O)[nH]c3cccc1c32
MIC (Salmonella enterica): 16 µg/mL (≈ 69.5 µM)

Cc1cc2c3c(c1C)C(C)(C)CCn3c(=O)c(=O)n2CC(O)CO (configuration not stated)
MIC (Salmonella enterica): 16 µg/mL (≈ 48.1 µM)

CC1(C)CCn2c(=O)n(CC(O)CO)c3cccc1c32 (configuration not stated)
MIC (Salmonella enterica): 16 µg/mL (≈ 57.9 µM)

CC1(C)CCn2c(=O)n(Cc3nn[nH]n3)c3cccc1c32
MIC (Salmonella enterica): > 32 µg/mL
